`c1ccc(-c2cc3nnc(-c4cnccn4)n3nc2OCc2nc[nH]n2)cc1` [Example 3, 7-Phenyl-3-(pyrazin-2-yl)-6-(1H-1,2,4-triazol-3-ylmethoxy)-1,2,4-triazolo[4,3-b]pyridazine] returned a melting point of 255 °C.

Consider `Cc1cc(-c2nnc3cc(C(C)(C)C)c(OCc4ncn(C)n4)nn23)no1` [Example 6, 7-t-Butyl-3-(5-methylisoxazol-3-yl)-6-(1-methyl-1.2 4-triazol-3-yl)methyloxy-1,2,4-triazolo[4,3-b]pyridazine], for which the melting point lay in the range of 221 to 223 °C.

Compound `Cn1ncnc1COc1nn2c(-c3cnccn3)nnc2cc1-c1ccccc1` [Example 2, 6-(2-Methyl-2H-1,2,4-triazol-3-ylmethoxy)-7-phenyl-3-(pyrazin-2-yl)-1,2,4-triazolo[4,3-b]pyridazine] returned a melting point of 264 °C.

`Cc1cc(-c2nnc3cc(C(C)(C)C)c(OCc4cn(C)nn4)nn23)no1` [Example 7, 7-t-Butyl-3-(5-methylisoxazol-3-yl)-6-(1-methyl-1.2.3-triazol-4-yl)methyloxy-1,2,4-triazolo[4,3-b]pyridazine] showed a melting point of 219 to 221 °C.

One may read the melting point as the temperature, or range, at which the solid turns liquid.

These data come from patent US6444666B1, “Triazolopyridazine Derivatives for treating anxiety and enhancing cognition” (Merck Sharp & Dohme Ltd., priority 1997, dated 2002).
